Results as given in PMC12040169 (PLOS Biology, 2025).

Experiment: in vitro
Settings: human, hela cells, % viability

| Compound | viability at 28.5 h, 10 µM [%] | viability at 28.5 h, 10 µM (bulk resorufin, single well) [%] |
| --- | --- | --- |
| Cc1ccc(C(C)C(=O)N2CCC(C(=O)c3cccnc3)CC2)cc1 (stereo not shown) [CBK283516] | 93.5 |  |
| CC(=O)c1cccc(NC(=O)CN(c2cc(Cl)ccc2Cl)S(=O)(=O)c2ccc(C)cc2)c1 [CBK268897] | 90.6 |  |
| COc1ccc2c(c1)C(=O)CC1(CCN(C(=O)/C=C/c3ccc(C)cc3)CC1)O2 [CBK156438] | 98.3 |  |
| CCC(=O)N1CCc2cc(C(O)CN3CCCCC3)ccc21 (stereo not shown) [CBK283111] | 98.3 |  |
| CS(=O)(=O)Nc1nccnc1OC1CCN(CCc2ccccc2)CC1 [CBK084279] | 98.3 |  |
| O=C(c1n[nH]nc1-c1ccccc1)N1CCCC(C(F)(F)F)C1 (stereo not shown) [CBK164228] | 96.1 |  |
| Cc1nc(C2CCN(C(=O)CCC3CCCO3)CC2)c2sccn12 (stereo not shown) [CBK282240] | 106 |  |
| CCn1c(SCC(=O)O)nnc1-c1c[nH]c2ccccc12 [CBK287089] | 85.9 |  |
| O=S(=O)(Nc1ncc(Br)c2cccnc12)c1ccc(Cl)c(Cl)c1 [CBK073888] | 89.5 |  |
| CCOC(=O)c1ccc(-n2sc3ccccc3c2=O)cc1 [CBK115552] | 99.1 |  |
| CCc1ccc2[nH]c(=O)c(CN(CCN(C)C)C(=S)NCc3ccccc3)cc2c1 [CBK134905] | 98.4 |  |
| O=C1CCC(=O)N1CCOc1nccnc1OC1CCN(Cc2ccc(Cl)c(Cl)c2)CC1 [CBK084335] | 96.2 |  |
| Fc1ccc(NC(=S)NCC2CC2)c(F)c1 [CBK011398] | 100 |  |
| COc1cccc(-c2nnc(SCC(=O)Nc3cccc([N+](=O)[O-])c3)n2C)c1 [CBK266074] | 106 |  |
| Cc1nn(C)cc1CN(Cc1cccc(F)c1)CC1CCCO1 (stereo not shown) [CBK283013] | 100 |  |
| c1nn(C2CCCCC2)cc1-c1cncn1CCCN1CCCCC1 [CBK281495] | 97.5 |  |
| O=C(c1csc2c1CCCC2)N1CCc2c(nc[nH]c2=O)C1 [CBK283717] | 77.7 |  |
| CCCC/C=C/c1cc(NCCC)n2nccc2n1 [CBK037127] | 99.1 |  |
| O=c1cc(N2CCOCC2)oc2cccc(O)c12 [CBK016536] | 91.3 |  |
| CCc1nccn1CCC(=O)NC1CCCN(Cc2ccccc2F)C1 (stereo not shown) [CBK306652] | 78.9 |  |
| CC(=O)NCc1cccc(-c2cc(OCC3COc4ccccc4O3)cnc2C)c1 (stereo not shown) [CBK161723A] | 112 |  |
| Nn1c(SCCCCSc2nnc(C(F)(F)F)n2N)nnc1C(F)(F)F [CBK267946] | 98.8 |  |

| Compound | viability at 28.5 h, 10 µM [%] | viability at 28.5 h, 10 µM (bulk resorufin, single well) [%] |
| --- | --- | --- |
| CC[C@H](C)[C@H](NC(N)=O)C(=O)Nc1ccc(F)c([N+](=O)[O-])c1 [CBK297489] | 97.1 |  |
| NS(=O)(=O)c1ccc(NC(=O)CSc2cccc3ccccc23)cc1 [CBK268987] | 93.2 |  |
| Cc1ccc2cc(CN(Cc3cccs3)C(=O)NCc3ccccc3)c(=O)[nH]c2c1C [CBK068496] | 91.2 |  |
| Clc1ccc(CN2CCCN(c3cc(OC4CCCCC4)ncn3)CC2)cc1Cl [CBK083338T] | 79.5 |  |
| CN(C)C(=O)Cn1cccc2cc(-c3ccc(F)cc3)nc1-2 [CBK285349] | 105 |  |
| CCN(CC)C(=O)c1cccc(NC(=O)Cc2cn3ccsc3n2)c1 [CBK305353] | 85.6 |  |
| COCCNC(=O)c1ccc(-c2ccccc2OC)nc1N(C)C [CBK106052] | 92 |  |
| CC(C)c1noc([C@@H]2C[C@H](NS(=O)(=O)c3ccc(F)cc3)CN2C)n1 [CBK288864] | 114 |  |
| Cc1cc2c(cc3c(=O)n(CC(=O)N4CCCC4)nc(C)n32)s1 [CBK284065] | 92.4 |  |
| COCC(=O)N1CCN(C(=O)c2cccc(F)c2)C[C@H]1C(=O)OC [CBK289608] | 89.4 |  |
| CC(C)C(=O)N1CC2(CCN(CCS(=O)(=O)c3ccccc3)CC2)c2ccccc21 [CBK126726] | 95.4 |  |
| O=C(CSc1nnc(-c2ccc(F)cc2)n1-c1ccccc1)Nc1cccc2ccccc12 [CBK267592] | 89.8 |  |
| CS(=O)(=O)c1ccc(-c2cnc3ncccc3c2N)cc1 [CBK083687] | 97.5 |  |
| CCOc1ccc(-c2n[nH]c(=S)n2CCC(=O)N2CCCN(Cc3ccc(C#N)cc3)CC2)cc1 [CBK297893] | 95.8 |  |
| CC(C)(C)c1ccc(C(=O)N2CCC(C(=O)O)CC2)cc1 [CBK286949] | 108 |  |
| CC(C)(c1ccccc1)c1ccc(OCc2ccc(S(=O)(=O)N3CCOCC3)cc2)cc1 [CBK267407] | 96.8 |  |
| Cc1cc(C)c(S(=O)(=O)Nc2nnc(C)s2)c(C)c1 [CBK045497] | 87.5 |  |
| CN1C(=O)N(C)C(=O)C(Cc2ccccn2)(Cc2ccccn2)C1=O [CBK269577] |  | 97.5 |
| O=C(N/N=C/c1ccc(O)cc1)C(=O)N/N=C/c1ccc(O)cc1 [CBK261625] | 88.7 |  |
| CC(Oc1cc(Cl)ccc1Cl)c1nnc(S)n1C (stereo not shown) [CBK288376] | 84.8 |  |
| Cn1c(COc2cccc3cccnc23)nnc1SCC(=O)O [CBK300505] | 89.4 |  |
| O=C(COc1ccc(Cl)cc1Cl)Nc1cccc(NC(=O)c2ccccc2Cl)c1 [CBK264726] | 105 |  |

| Compound | viability at 28.5 h, 10 µM [%] | viability at 28.5 h, 10 µM (bulk resorufin, single well) [%] |
| --- | --- | --- |
| COc1cc(/C=C/C(=O)O)ccc1OCC(=O)Nc1ccccc1 [CBK265695] | 101 |  |
| COCc1cc(C)nc(SCC(=O)O)c1C#N [CBK270463] | 88.2 |  |
| O=C(CCCOc1ccc(Cl)cc1Cl)NO [CBK288436] | 81.7 |  |
| O=C(Oc1cccc(NC(=O)c2ccco2)c1)c1cccc(S(=O)(=O)N2CCOCC2)c1 [CBK262272] | 97.2 |  |
| CC(=O)Nc1cc2nc3ccccc3nc2cc1NC(C)=O [CBK261018] | 92.6 |  |
| COc1cc(C)c(C)cc1S(=O)(=O)n1cnc2ccccc21 [CBK287578] | 89.2 |  |
| O=C(OCCCc1cccnc1)c1cc(=O)[nH]c2ccccc12 [CBK295631] | 99.7 |  |
| Cc1ccc(C)c(C(=O)CCC(=O)Nc2cccnc2)c1 [CBK266902] | 95.8 |  |
| O=C(Nc1ccc2ncccc2c1)c1ccc(F)cc1Cl [CBK159796] | 91.1 |  |
| CCn1cc(-c2cncn2CCOc2ccc(Cl)cc2)cn1 [CBK281776] | 81.8 |  |
| Cc1nnc(Sc2nc3ccccc3nc2NC(C)C)s1 [CBK093731] | 90.6 |  |
| COCCC(=O)N1C2CCC(C2)[C@@H]1COc1ccc(F)cc1 (stereo partly shown) [CBK284604] | 96 |  |
| NS(=O)(=O)c1ccc(C(=O)Nc2cccc3cc[nH]c23)cc1 [CBK160094] | 94.8 |  |
| O=C(CSc1ccccc1)Nc1nccs1 [CBK288213] | 109 |  |
| O=C(O)c1cc(NC(=O)c2cccc(N3C(=O)c4ccccc4C3=O)c2)cc(C(=O)O)c1 [CBK263338] | 96.8 |  |
| O=C(c1ccoc1)N1CCN(S(=O)(=O)c2ccc3c(c2)Cc2cc(S(=O)(=O)N4CCN(C(=O)c5ccco5)CC4)ccc2-3)CC1 [CBK262299] | 113 |  |
| CC1(C)Cc2nc(N3CCOCC3)ncc2C(NC(=O)C2CCC2)C1 (stereo not shown) [CBK306943] | 83.8 |  |
| COc1cc(CNC(=O)C(C)SCc2ccccc2)ccn1 (stereo not shown) [CBK298331] | 90.8 |  |
| O=C1c2ccc(-c3ccc4c(c3)C(=O)N(Cc3ccco3)C4=O)cc2C(=O)N1Cc1ccco1 [CBK266578] | 93.3 |  |
| Cc1cc(CN2CCCC2)cc(C)c1O [CBK028736C] | 96.3 |  |
